According to patent publication US20230111310A1, “CARBOXYLIC ACID DERIVATIVE-SUBSTITUTED IMINO ARYL COMPOUND, PREPARATION METHOD THEREFOR, HERBICIDAL COMPOSITION AND USE THEREOF” (Qingdao Kingagroot Chemical Compound Co., Ltd., priority 2020, published 2023):

These molecules were tested on Abutilon theophrasti (assay: Weeding effect in post-emergence stage). Conditions: Dose 15 g/ha; fresh weight control rate level.
Assay type: in vivo
Text: The activity level criteria for plant damage (i.e., growth control rate) are as follows:
Monocotyledonous and dicotyledonous weed seeds (Descurainia sophia, Capsella bursa-pastoris, Abutilon theophrasti, Galium aparine, Stellaria media, Lithospermum arvense, rorippa indica, Alopecurus aequalis, Alopecurus japonicus, Eleusine indica, Beckmannia syzigachne, Sclerochloa dura, Conyza Canadensis, Phleum paniculatum, Veronica didyma Tenore, Bromus japonicus, Aegilops tauschii, Phalaris arundinacea, Amaranthus retroflexus, Chenopodiaceae, Commelina communis, Sonchus arvensis, Convolvulus arvensis, Cirsium setosum, Bidens tripartita L., Solanum nigrum, Acalypha australis, Digitaria sanguinalis, Echinochloa crusgalli, Setaria viridis, Setaria glauca, Leptochloa chinensis, Monochoria vaginalis, Sagittaria trifolia, Scirpus juncoides, Cyperus rotundus, Cyperus iria, Cyperus difformis, Fimbristylis, Portulaca oleracea, Xanthium sibiricum, Pharbitis nil, etc.) and major crop seeds (wheat, corn, rice, soybean, cotton, oilseed rape, millet, sorghum, potato, sesame, ricinus, etc.) were placed in plastic pots filled with soil, then covered with 0.5-2 cm of soil, allowed to grow in a good greenhouse environment. After 2 weeks of sowing, the test plants were treated in the 2-3 leaf stage. The tested compounds of the present invention were respectively dissolved in acetone, then added with Tween 80 and 1.5 liter/ha of emulsifiable concentrate of methyl oleate as synergist, diluted with a certain amount of water to obtain a solution with a certain concentration, and sprayed with a spray tower onto the plants. After the application, the plants were cultured for 3 weeks in the greenhouse, and then the experimental results of the weeding were counted. […]

| SMILES | Weeding effect in post-emergence stage, Abutilon theophrasti (level) |
| --- | --- |
| C[C@@H](O/N=C/c1cc(-n2c(=O)cc(C(F)(F)F)n(C)c2=O)c(F)cc1Cl)C(=O)NO [452(R)] | 5 (Level 5: growth control rate is above 85%) |
| CC[C@@](C)(O/N=C/c1cc(-n2c(=O)cc(C(F)(F)F)n(C)c2=O)c(F)cc1Cl)C(=O)OC [471(R)] | 5 (Level 5: growth control rate is above 85%) |
| COC(=O)[C@@H](C)O/N=C/c1cc(-n2c(=O)c(Br)c(C(F)(F)F)n(C)c2=O)c(F)cc1Cl [475(R)] | 5 (Level 5: growth control rate is above 85%) |
| COC(=O)[C@@H](C)O/N=C/c1cc(-n2c(=O)c(I)c(C(F)(F)F)n(C)c2=O)c(F)cc1Cl [476(R)] | 5 (Level 5: growth control rate is above 85%) |
| COC(=O)[C@@H](C)O/N=C/c1cc(-n2c(=O)c(OC)c(C(F)(F)F)n(C)c2=O)c(F)cc1Cl [477(R)] | 5 (Level 5: growth control rate is above 85%) |
| COC(=O)C[C@@H](C)O/N=C/c1cc(-n2c(=O)cc(C(F)(F)F)n(C)c2=O)c(F)cc1Cl [481(R)] | 5 (Level 5: growth control rate is above 85%) |
| CC(O/N=C/c1cc(-n2c(=O)cc(C(F)(F)F)n(C)c2=O)c(F)cc1Cl)C(=O)OCCOC(=O)C(C)O/N=C/c1cc(-n2c(=O)cc(C(F)(F)F)n(C)c2=O)c(F)cc1Cl (stereo not drawn) [Compound 451] | 5 (Level 5: growth control rate is above 85%) |
| CC(O/N=C/c1cc(-n2c(=O)cc(C(F)(F)F)n(C)c2=O)c(F)cc1Cl)C(=O)NO (stereo not drawn) [Compound 452] | 5 (Level 5: growth control rate is above 85%) |
| COC(=O)CCO/N=C/c1cc(-n2c(=O)cc(C(F)(F)F)n(C)c2=O)c(F)cc1Cl [Compound 479] | 5 (Level 5: growth control rate is above 85%) |
| CCOC(=O)CCO/N=C/c1cc(-n2c(=O)cc(C(F)(F)F)n(C)c2=O)c(F)cc1Cl [Compound 480] | 5 (Level 5: growth control rate is above 85%) |

Same assay, conditions: Dose 60 g/ha; fresh weight control rate level

| SMILES | Weeding effect in post-emergence stage, Abutilon theophrasti (level) |
| --- | --- |
| CC(O/N=C/c1cc(-n2c(=O)c(CCO)c(C(F)(F)F)n(C)c2=O)c(F)cc1Cl)C(=O)OCCO (racemic) [Compound 478] | 5 (Level 5: growth control rate is above 85%) |
| C[C@@H](O/N=C/c1cc(-n2c(=O)c(CCO)c(C(F)(F)F)n(C)c2=O)c(F)cc1Cl)C(=O)OCCO [478(R)] | 5 (Level 5: growth control rate is above 85%) |
